Consider 2 substances from patent US20240247253A1, “PRODUCTION METHOD OF POLYPEPTIDE, TAG, EXPRESSION VECTOR, EVALUATION METHOD OF POLYPEPTIDE, PRODUCTION METHOD OF NUCLEIC ACID DISPLAY LIBRARY, AND SCREENING METHOD” (FUJIFILM Corporation, priority 2021, published 2024).

In the experiment the test system is cell-free peptide synthesis system derived from Escherichia coli. Briefly: Cell-free biosynthesis of the integrin binding peptide fusion protein with N-terminal tag, 1 hour reaction, amount measured by ELISA. The class given is biochemical. From the text: In the cell-free peptide synthesis system derived from Escherichia coli, the effect of the VKKX tag on the biosynthesis amount of the polypeptide was examined. As a polypeptide to be biosynthesized, an integrin binding peptide containing cysteine and chloroacetyl lysine was selected. In this polypeptide, a thiol group of cysteine and a chloroacetyl group of chloroacetyl lysine spontaneously form a thioether bond to become a cyclic polypeptide.
A fusion protein in which an integrin binding peptide, a Myc tag, and a HiBiT tag were linked in this order was designed. As a spacer, Gly-Gly-Ser was inserted between the integrin binding peptide and the Myc tag and between the Myc tag and the HiBiT tag. The amino acid sequence of this fusion protein is SEQ ID NO: 5, and the base sequence encoding this fusion protein is SEQ ID NO: 6. In SEQ ID NO: 5, the integrin binding peptide ranges to the amino acid at the twelfth position (that is, alanine) from an N-terminal, and the amino acid at eleventh position from the N-terminal is chloroacetyl lysine. The triplet TAG at the positions 31 to 33 from the 5′ terminal of the base sequence set forth in SEQ ID NO: 6 was assigned to the codon of chloroacetyl lysine. The end of the base sequence set forth in SEQ ID NO: 6 is the stop codon TAA.
A base sequence encoding a tagged fusion protein in which methionine, a VKKX tag (any of SEQ ID nOs: 7 to 52), and a fusion protein (SEQ ID NO: 5) were linked in this order was designed. In this base sequence, a base sequence (any of SEQ ID nOs: 53 to 98) encoding a VKKX tag is arranged immediately after the start codon ATG, and a base sequence encoding a fusion protein immediately after the base sequence (SEQ ID NO: 6) encoding the VKKX tag is arranged.
As a control example for evaluating the effect of the VKKX tag, a base sequence in which a base sequence (SEQ ID NO: 6) encoding a fusion protein arranged immediately after the start codon ATG was designed.
In order to translate chloroacetyl lysine which is an unnatural amino acid, a tRNA in which the anticodon was CUA and paired with the UAG codon of mRNA was prepared. This tRNA was aminoacylated with an N-chloroacetyl lysine hosphoro 2′ deoxyribocytidylylriboadenosine (pdCpA) ester. This aminoacyl tRNA is referred to as an Aminoacyl tRNA (1).
The cell-free biosynthesis of the polypeptide was carried out in a translation solution containing a template DNA, PUREfrex 2.0 (GeneFrontier, PF201-0.25-5), and Aminoacyl tRNA (1). 1.25 μL (62.5 ng) of the template DNA prepared to 50 ng/μL, 2.5 μL of PUREfrex 2.0 Solution I, 0.25 μL of Solution II, 0.5 μL of Solution III, and 0.5 μL of Aminoacyl tRNA (1) were mixed and mixture was subjected to a reaction at 37° ° C. for 1 hour.
The amount of the biosynthesized polypeptide was measured by ELISA. 50 ng of Recombinant Human Integrin αVβ3 (R&D systems, 3050-AV-050) was immobilized in each well of a 96-well plate and blocked with Blocker Casein in PBS (Thermo, 37528), and then a cell-free biosynthesis solution diluted with Can Get Signal Immunoreaction Enhancer Solution I (TOYOBO, NKB-101) containing 5 mmol/L MgCl2 was added thereto, and the mixture was subjected to a reaction at room temperature for 3 hours. After washing with 5 mmol/L MgCl2/0.05% Tween 20-containing phosphate buffered saline (PBS), an anti-Myc antibody (Cell Signaling, 14038S) diluted with Can Get Signal Immunoreaction Enhancer Solution II (TOYOBO, NKB-101) was added thereto, and the mixture was subjected to a reaction at room temperature for 2 hours. After washing with PBS containing 5 mmol/L MgCl2/0.05% Tween 20, Super Signal ELISA Femto Substrate (Thermo, 37075) was added thereto, and the luminescence was measured. The amount of the fusion protein in the cell-free biosynthesis solution was calculated based on a calibration curve created from the fusion protein having a known concentration. The luminescence measurement was performed twice, and the average value of the amounts of the fusion protein was calculated. […]
(ELISA stands for enzyme-linked immunosorbent assay.)

On to “SEQ ID NO: 27: VKKX tag, amino acid sequence VKKTKT (VKKX Tag)”, for which the “increase of biosynthesis amount of the fusion protein” value (Example 1, versus control without tag, fusion protein SEQ ID NO: 5, 1 hour) is listed as 4.9 times. The “Biosynthesis amount of fusion protein” value (relative value, control example without tag = 1, fusion protein SEQ ID NO: 5, 37° C. for 1 hour, average of two measurements) is on record as 4.94; the “Biosynthesis amount of fusion protein” value (tag encoded by base sequence SEQ ID NO 73, GC content 17%, control without tag = 1) is 4.94; the “Biosynthesis amount of fusion protein” value (tag encoded by base sequence SEQ ID NO 111, GC content 33%, control without tag = 1) came to 3.83; the “Biosynthesis amount of fusion protein” value (tag encoded by base sequence SEQ ID NO 112, GC content 50%, control without tag = 1) is recorded as 3.77.
Consider “SEQ ID NO: 107: tag consisting of an amino acid sequence of SKIK, disclosed in WO2016/204198A; comparative control (SKIK Tag) [reference compound]”, for which the “Biosynthesis amount of fusion protein” value was 3.79 (tag encoded by base sequence SEQ ID NO 108, GC content 8%, control without tag = 1); 4.18 (tag encoded by base sequence SEQ ID NO 109, GC content 25%, control without tag = 1); 1.46 (tag encoded by base sequence SEQ ID NO 110, GC content 42%, control without tag = 1).
